{"source": "paper PMC6576746", "about": "“Rational discovery of dual-indication multi-target PDE/Kinase inhibitor for precision anti-cancer therapy using structural systems pharmacology” (PLoS Computational Biology, 2019)", "assay_in_all_cases": "biochemical", "set-up_in_all_cases": "DiscoverX KinomeScan competition binding assay across human kinases; per cent of control at 10 and 100 uM", "key": {"[1]": {"biological_target": "MYLK (Homo sapiens, UniProt Q15746)", "sequence (Q15746 whole entry)": "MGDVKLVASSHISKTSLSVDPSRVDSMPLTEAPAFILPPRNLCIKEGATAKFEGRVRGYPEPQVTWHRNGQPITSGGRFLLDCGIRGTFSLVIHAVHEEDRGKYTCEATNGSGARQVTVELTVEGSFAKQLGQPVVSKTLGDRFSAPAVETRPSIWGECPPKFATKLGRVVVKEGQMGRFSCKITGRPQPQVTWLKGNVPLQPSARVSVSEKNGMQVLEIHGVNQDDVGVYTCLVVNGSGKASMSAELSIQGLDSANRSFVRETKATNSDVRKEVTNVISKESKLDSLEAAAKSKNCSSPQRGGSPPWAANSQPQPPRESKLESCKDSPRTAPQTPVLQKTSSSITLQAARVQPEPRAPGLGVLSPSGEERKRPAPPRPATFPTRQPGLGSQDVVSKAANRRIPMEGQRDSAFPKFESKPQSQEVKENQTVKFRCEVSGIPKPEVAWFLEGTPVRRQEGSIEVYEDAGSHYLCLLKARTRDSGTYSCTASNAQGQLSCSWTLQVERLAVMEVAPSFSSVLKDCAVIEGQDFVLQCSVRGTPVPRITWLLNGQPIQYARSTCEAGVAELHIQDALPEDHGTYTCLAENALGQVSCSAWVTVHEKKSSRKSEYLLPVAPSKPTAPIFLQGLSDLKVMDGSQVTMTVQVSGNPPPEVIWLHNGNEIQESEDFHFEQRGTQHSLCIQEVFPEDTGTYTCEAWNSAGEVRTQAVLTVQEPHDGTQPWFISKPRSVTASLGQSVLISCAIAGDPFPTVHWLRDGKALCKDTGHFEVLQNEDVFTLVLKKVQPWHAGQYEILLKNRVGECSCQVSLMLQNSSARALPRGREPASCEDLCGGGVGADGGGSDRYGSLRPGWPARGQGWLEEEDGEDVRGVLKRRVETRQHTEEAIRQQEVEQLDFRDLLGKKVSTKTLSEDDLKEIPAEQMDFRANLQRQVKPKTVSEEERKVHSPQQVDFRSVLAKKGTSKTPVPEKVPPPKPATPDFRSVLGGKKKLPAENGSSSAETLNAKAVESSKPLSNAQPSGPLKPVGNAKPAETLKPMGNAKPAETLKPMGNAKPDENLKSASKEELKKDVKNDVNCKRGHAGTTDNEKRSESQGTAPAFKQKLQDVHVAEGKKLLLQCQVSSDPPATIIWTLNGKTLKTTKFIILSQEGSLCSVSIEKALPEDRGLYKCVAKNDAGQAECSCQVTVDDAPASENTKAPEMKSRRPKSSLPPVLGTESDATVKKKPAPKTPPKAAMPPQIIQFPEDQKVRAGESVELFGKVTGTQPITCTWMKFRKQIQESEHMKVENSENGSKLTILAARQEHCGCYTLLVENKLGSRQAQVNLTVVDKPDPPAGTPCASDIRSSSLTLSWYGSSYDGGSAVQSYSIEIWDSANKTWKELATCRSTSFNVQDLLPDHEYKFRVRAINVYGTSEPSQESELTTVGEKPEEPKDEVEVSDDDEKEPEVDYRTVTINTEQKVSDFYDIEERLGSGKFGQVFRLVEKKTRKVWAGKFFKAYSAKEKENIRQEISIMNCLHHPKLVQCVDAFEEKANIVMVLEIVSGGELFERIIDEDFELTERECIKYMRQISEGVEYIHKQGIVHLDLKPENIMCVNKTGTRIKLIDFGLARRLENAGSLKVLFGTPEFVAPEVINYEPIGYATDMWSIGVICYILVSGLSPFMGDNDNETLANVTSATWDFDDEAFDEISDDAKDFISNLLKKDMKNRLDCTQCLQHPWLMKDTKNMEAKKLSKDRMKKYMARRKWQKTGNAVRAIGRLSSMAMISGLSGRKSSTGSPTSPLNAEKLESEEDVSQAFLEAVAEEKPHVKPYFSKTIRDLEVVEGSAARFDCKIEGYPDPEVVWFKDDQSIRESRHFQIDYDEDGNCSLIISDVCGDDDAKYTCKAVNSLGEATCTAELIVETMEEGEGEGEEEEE", "conditions": "competition binding, % of control", "summary_of_the_method": "(§1)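 KinomeScan competition binding was run across a human kinase panel at 10 μM and 100 μM levosimendan. Results are %control = (test − positive control)/(negative control − positive control) × 100.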"}, "[2]": {"biological_target": "T1, ERK4 (Homo sapiens, UniProt P31152)", "T1 construct": "gene MAPK4", "conditions": "competition binding, % of control; read-out: Percent Control (100 uM Levosimendan)", "summary_of_the_method": "as §1"}, "[3]": {"biological_target": "T2, VEGFR2 (Homo sapiens, UniProt P35968)", "T2 construct": "gene KDR", "conditions": "competition binding, % of control; read-out: Percent Control (100 uM Levosimendan)", "summary_of_the_method": "as §1"}, "[4]": {"biological_target": "T3, MEK2 (Homo sapiens, UniProt P36507)", "T3 construct": "gene MAP2K2", "conditions": "competition binding, % of control; read-out: Percent Control (100 uM Levosimendan)", "summary_of_the_method": "as §1"}, "[5]": {"biological_target": "IRAK4 (Homo sapiens, UniProt Q9NWZ3)", "conditions": "competition binding, % of control; read-out: Percent Control (100 uM Levosimendan)", "summary_of_the_method": "as §1"}, "[6]": {"biological_target": "CAMK1D (Homo sapiens, UniProt Q8IU85)", "conditions": "competition binding, % of control; read-out: Percent Control (100 uM Levosimendan)", "summary_of_the_method": "as §1"}, "[7]": {"biological_target": "T4, VPS34 (Homo sapiens, UniProt Q8NEB9)", "T4 construct": "gene PIK3C3", "conditions": "competition binding, % of control; read-out: Percent Control (100 uM Levosimendan)", "summary_of_the_method": "as §1"}, "[8]": {"biological_target": "PIK3CA(E542K) (Homo sapiens, UniProt P42336, E542K)", "sequence (P42336 whole entry E542K)": "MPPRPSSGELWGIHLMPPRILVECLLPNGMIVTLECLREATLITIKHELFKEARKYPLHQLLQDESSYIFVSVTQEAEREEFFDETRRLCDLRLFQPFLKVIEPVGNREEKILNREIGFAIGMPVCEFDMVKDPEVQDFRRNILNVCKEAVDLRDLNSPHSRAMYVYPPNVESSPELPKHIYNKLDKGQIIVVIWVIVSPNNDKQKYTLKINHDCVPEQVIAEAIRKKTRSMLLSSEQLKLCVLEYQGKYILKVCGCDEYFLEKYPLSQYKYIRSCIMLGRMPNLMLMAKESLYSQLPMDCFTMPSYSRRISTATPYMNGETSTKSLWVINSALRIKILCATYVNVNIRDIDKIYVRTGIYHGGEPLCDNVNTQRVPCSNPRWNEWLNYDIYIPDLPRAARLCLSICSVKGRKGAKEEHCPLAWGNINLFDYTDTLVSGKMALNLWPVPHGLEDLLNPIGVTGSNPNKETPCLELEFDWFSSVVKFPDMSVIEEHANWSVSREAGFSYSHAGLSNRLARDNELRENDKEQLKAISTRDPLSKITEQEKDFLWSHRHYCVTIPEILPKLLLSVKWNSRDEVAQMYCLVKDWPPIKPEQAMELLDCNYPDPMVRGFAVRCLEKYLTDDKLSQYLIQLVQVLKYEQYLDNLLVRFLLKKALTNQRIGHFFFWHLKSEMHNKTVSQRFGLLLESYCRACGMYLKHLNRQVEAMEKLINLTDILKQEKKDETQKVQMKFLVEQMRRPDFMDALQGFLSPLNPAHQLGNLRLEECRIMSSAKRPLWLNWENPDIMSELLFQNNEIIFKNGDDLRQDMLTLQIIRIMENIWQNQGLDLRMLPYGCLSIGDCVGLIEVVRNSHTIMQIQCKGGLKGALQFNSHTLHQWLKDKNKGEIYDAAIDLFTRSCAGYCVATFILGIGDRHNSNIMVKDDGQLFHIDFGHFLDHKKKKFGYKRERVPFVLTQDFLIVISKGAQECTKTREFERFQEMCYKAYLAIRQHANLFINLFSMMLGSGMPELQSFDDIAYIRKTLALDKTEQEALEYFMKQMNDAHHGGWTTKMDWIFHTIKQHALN", "conditions": "competition binding, % of control; read-out: Percent Control (100 uM Levosimendan)", "summary_of_the_method": "as §1"}, "[9]": {"biological_target": "T5, ABL1(M351T)-phosphorylated (Homo sapiens, UniProt P00519, M351T)", "T5 construct": "phosphorylated", "conditions": "competition binding, % of control; read-out: Percent Control (100 uM Levosimendan)", "summary_of_the_method": "as §1"}, "[10]": {"biological_target": "CSNK2A2 (Homo sapiens, UniProt P19784)", "sequence (P19784 whole entry)": "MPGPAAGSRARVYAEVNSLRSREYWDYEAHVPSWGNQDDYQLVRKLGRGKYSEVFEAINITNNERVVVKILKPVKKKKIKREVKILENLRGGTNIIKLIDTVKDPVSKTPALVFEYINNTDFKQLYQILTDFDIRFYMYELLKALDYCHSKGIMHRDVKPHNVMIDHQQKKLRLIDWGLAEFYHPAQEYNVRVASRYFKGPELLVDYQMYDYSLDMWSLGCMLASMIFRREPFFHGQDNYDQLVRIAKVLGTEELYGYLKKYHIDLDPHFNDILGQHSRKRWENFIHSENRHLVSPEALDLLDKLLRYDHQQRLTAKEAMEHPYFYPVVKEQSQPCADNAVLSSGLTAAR", "conditions": "competition binding, % of control; read-out: Percent Control (100 uM Levosimendan)", "summary_of_the_method": "as §1"}, "[11]": {"biological_target": "CDK5 (Homo sapiens, UniProt Q00535)", "sequence (Q00535 whole entry)": "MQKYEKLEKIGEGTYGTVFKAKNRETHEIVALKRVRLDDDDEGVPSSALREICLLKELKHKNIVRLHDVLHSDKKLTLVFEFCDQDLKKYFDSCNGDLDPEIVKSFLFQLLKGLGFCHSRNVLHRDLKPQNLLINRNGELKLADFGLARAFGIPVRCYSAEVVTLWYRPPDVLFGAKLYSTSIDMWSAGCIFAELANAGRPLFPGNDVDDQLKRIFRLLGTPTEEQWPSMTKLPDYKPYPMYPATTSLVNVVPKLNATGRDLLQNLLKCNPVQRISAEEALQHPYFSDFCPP", "conditions": "competition binding, % of control; read-out: Percent Control (100 uM Levosimendan)", "summary_of_the_method": "as §1"}, "[12]": {"biological_target": "PAK3 (Homo sapiens, UniProt O75914)", "conditions": "competition binding, % of control; read-out: Percent Control (100 uM Levosimendan)", "summary_of_the_method": "as §1"}, "[13]": {"biological_target": "PIK3C2B (Homo sapiens, UniProt O00750)", "conditions": "competition binding, % of control; read-out: Percent Control (100 uM Levosimendan)", "summary_of_the_method": "as §1"}, "[14]": {"biological_target": "PIK3CA (Homo sapiens, UniProt P42336)", "sequence (P42336 whole entry)": "as the sequence (P42336 whole entry E542K) above, with K542E counted along it", "conditions": "competition binding, % of control; read-out: Percent Control (100 uM Levosimendan)", "summary_of_the_method": "as §1"}, "[15]": {"biological_target": "MARK3 (Homo sapiens, UniProt P27448)", "conditions": "competition binding, % of control; read-out: Percent Control (100 uM Levosimendan)", "summary_of_the_method": "as §1"}, "[16]": {"biological_target": "EPHA8 (Homo sapiens, UniProt P29322)", "conditions": "competition binding, % of control; read-out: Percent Control (100 uM Levosimendan)", "summary_of_the_method": "as §1"}, "[17]": {"biological_target": "TNIK (Homo sapiens, UniProt Q9UKE5)", "sequence (Q9UKE5 whole entry)": "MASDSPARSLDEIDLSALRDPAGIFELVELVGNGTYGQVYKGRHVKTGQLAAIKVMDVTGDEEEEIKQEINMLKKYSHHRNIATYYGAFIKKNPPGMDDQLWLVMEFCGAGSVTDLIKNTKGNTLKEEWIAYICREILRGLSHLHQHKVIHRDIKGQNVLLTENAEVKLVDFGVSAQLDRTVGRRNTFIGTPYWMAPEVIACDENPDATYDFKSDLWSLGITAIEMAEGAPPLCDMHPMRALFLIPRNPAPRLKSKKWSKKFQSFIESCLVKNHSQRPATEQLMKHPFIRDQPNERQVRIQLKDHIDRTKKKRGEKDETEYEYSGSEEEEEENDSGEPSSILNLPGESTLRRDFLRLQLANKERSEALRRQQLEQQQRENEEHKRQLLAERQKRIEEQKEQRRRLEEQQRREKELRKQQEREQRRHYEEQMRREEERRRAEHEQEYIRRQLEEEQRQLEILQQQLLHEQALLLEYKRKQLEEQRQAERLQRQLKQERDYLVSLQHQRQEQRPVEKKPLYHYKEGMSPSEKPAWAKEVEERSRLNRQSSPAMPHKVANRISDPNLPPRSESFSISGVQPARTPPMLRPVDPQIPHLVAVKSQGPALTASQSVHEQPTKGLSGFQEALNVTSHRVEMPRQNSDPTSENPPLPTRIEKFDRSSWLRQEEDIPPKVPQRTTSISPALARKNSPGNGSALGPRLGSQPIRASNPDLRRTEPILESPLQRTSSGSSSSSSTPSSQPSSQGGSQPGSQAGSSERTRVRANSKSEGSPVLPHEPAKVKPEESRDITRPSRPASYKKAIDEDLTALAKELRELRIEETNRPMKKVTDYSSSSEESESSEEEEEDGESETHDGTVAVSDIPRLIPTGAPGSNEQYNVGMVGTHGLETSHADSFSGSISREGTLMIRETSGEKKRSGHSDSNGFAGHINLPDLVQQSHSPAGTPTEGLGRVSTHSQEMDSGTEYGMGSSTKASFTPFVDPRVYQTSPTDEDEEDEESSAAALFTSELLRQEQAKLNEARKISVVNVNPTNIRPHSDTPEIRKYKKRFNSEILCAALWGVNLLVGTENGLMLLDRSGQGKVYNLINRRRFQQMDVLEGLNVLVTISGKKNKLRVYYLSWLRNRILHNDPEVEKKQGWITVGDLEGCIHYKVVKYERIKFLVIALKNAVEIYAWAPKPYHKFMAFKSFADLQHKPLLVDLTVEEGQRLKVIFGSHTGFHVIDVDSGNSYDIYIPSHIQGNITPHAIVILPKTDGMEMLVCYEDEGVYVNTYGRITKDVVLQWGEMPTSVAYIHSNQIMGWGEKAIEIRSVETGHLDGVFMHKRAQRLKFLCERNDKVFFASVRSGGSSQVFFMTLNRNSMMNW", "conditions": "competition binding, % of control", "summary_of_the_method": "as §1"}, "[18]": {"biological_target": "CAMK1 (Homo sapiens, UniProt Q14012)", "conditions": "competition binding, % of control; read-out: Percent Control (100 uM Levosimendan)", "summary_of_the_method": "as §1"}, "[19]": {"biological_target": "TESK1 (Homo sapiens, UniProt Q15569)", "conditions": "competition binding, % of control; read-out: Percent Control (100 uM Levosimendan)", "summary_of_the_method": "as §1"}, "[20]": {"conditions": "read-out: Percent Control (10 uM Levosimendan)"}, "[21]": {"conditions": "read-out: Percent Control (100 uM Levosimendan)"}}, "data": [{"compound": "C[C@@H]1CC(=O)NN=C1c1ccc(NN=C(C#N)C#N)cc1", "note": "[levosimendan]", "values": [{"measurement": "remaining binding at 10 µM", "setting": "[1]; [20]", "value": 38, "unit": "%"}, {"measurement": "remaining binding at 100 µM", "setting": "[1]; [21]", "value": 32, "unit": "%"}, {"measurement": "remaining binding at 100 µM", "setting": "[2]", "value": 100, "unit": "%"}, {"measurement": "remaining binding at 100 µM", "setting": "[3]", "value": 100, "unit": "%"}, {"measurement": "remaining binding at 100 µM", "setting": "[4]", "value": 70, "unit": "%"}, {"measurement": "remaining binding at 100 µM", "setting": "[5]", "value": 80, "unit": "%"}, {"measurement": "remaining binding at 100 µM", "setting": "[6]", "value": 57, "unit": "%"}, {"measurement": "remaining binding at 100 µM", "setting": "[7]", "value": 100, "unit": "%"}, {"measurement": "remaining binding at 100 µM", "setting": "[8]", "value": 100, "unit": "%"}, {"measurement": "remaining binding at 100 µM", "setting": "[9]", "value": 79, "unit": "%"}, {"measurement": "remaining binding at 100 µM", "setting": "[10]", "value": 73, "unit": "%"}, {"measurement": "remaining binding at 100 µM", "setting": "[11]", "value": 100, "unit": "%"}, {"measurement": "remaining binding at 100 µM", "setting": "[12]", "value": 99, "unit": "%"}, {"measurement": "remaining binding at 100 µM", "setting": "[13]", "value": 90, "unit": "%"}, {"measurement": "remaining binding at 100 µM", "setting": "[14]", "value": 96, "unit": "%"}, {"measurement": "remaining binding at 100 µM", "setting": "[15]", "value": 95, "unit": "%"}, {"measurement": "remaining binding at 100 µM", "setting": "[16]", "value": 91, "unit": "%"}, {"measurement": "remaining binding at 10 µM", "setting": "[17]; [20]", "value": 77, "unit": "%"}, {"measurement": "remaining binding at 100 µM", "setting": "[17]; [21]", "value": 32, "unit": "%"}, {"measurement": "remaining binding at 100 µM", "setting": "[18]", "value": 77, "unit": "%"}, {"measurement": "remaining binding at 100 µM", "setting": "[19]", "value": 96, "unit": "%"}]}]}
